Values of other authors in US6884793B2, “Combination preparation for contraception based on natural estrogens” (Jenapharm GmbH & Co. KG, priority 1995, dated 2005).

Test system: human liver Cytochrome P-450

SMILES: C#C[C@]1(O)CC[C@H]2[C@@H]3CCc4cc(O)ccc4[C@H]3CC[C@@]21C [Ethinyl estradiol, ethinyl estradiol]
- effect on Cytochrome P-450 system: suicidal blockage of the Cytochrome P-450 system
